Our source for the ED50, ED (200% urine output) and ED (500% urine output) values is patent US6177438A, “Morphinan derivatives and pharmaceutical use thereof” (priority 1993, dated 2001).

Experiment [1] deals with acetic acid-induced writhing in ddy mice. As to the kind of experiment: animal or person. Type of experiment: in vivo, 5 week old ddy mice. Particulars: Mus musculus, sc, s.c. 15 minutes before acetic acid, read-out: ED50. The protocol:
5 week old ddy mice were used in this test. After intraperitoneal administration of 0.1 ml of 0.6% aqueous acetic acid per 10 g of body weight, the number of writhing reactions that occurred in 10 minutes starting 10 minutes after administration was evaluated for the indicator. The test drug was administered subcutaneously into the backs of the animals 15 minutes before administration of acetic acid.

Experiment [2] is described as follows: Diuretic action (urine output for 5 hours after physiological saline loading in rats). Particulars: Rattus norvegicus, sc, 5 hours after saline 20 ml/kg p.o.; for ED (200% urine output): dose giving urine output of 200 (non-dosed group = 100); for ED (500% urine output): dose giving urine output of 500 (non-dosed group = 100). It counts as in vivo, male Wistar rats. The protocol: 7-8 week old male Wistar rats were used in this test after prohibiting from drinking water for 1 hour before the start of testing. After discharging any urine accumulated in the bladder by gently stimulating the lower abdomens of the animals, the drug was administered subcutaneously. After 30 minutes, the animals were then forcibly given 20 ml/kg of physiological saline orally. The animals were placed in metabolic cages immediately after administration of the drug (2 animals/cage) and urine output for 5 hours after loading with physiological saline was measured. Drug efficacy was expressed in the form of those doses resulting in urine outputs of 200 and 500, respectively, when the urine output of a non-dosed group was taken to be 100. Those doses were expressed as the ED200 and ED500 values, respectively.

Structures can show the parent of a compound that is named as a salt.

As to `CN(C(=O)c1ccc(Cl)c(Cl)c1)[C@H]1CC[C@@]2(O)[C@H]3Cc4ccc(O)c5c4[C@@]2(CCN3CC2CC2)[C@H]1O5` [Compound 27, 17-cyclopropylmethyl-3,14β-dihydroxy-4,5α-epoxy-6α-(N-methyl-3,4-dichlorobenzamido)morphinan.cndot.hydrochloride], the ED50 (usually the midpoint of the dose-response relation) in experiment [1] amounted to 0.046 mg/kg. In experiment [2], this molecule had an ED (200% urine output) of 0.0248 mg/kg and an ED (500% urine output) of 2.08 mg/kg. Consider `CN(C(=O)Cc1ccc(Br)cc1)[C@H]1CC[C@@]2(O)[C@H]3Cc4ccc(O)c5c4[C@@]2(CCN3CC2CC2)[C@H]1O5` [Compound 28, 17-cyclopropylmethyl-3,14β-dihydroxy-4,5α-epoxy-6α-(N-methyl-4-bromophenylacetamido)morphinan.cndot.hydrobromide], for which the ED50 in experiment [1] is 0.071 mg/kg. In experiment [2], this molecule yielded an ED (200% urine output) of 0.02 mg/kg and an ED (500% urine output) of 3.8 mg/kg. Regarding `CN(C(=O)Cc1cccc(F)c1)[C@H]1CC[C@@]2(O)[C@H]3Cc4ccc(O)c5c4[C@@]2(CCN3CC2CC2)[C@H]1O5` [Compound 37, 17-cyclopropylmethyl-3,14β-dihydroxy-4,5α-epoxy-6α-(N-methyl-3-fluorophenylacetamido)morphinan.cndot.hydrochloride], the ED50 in experiment [1] was found to be 0.0041 mg/kg. For the same molecule, the ED (200% urine output) in experiment [2] came out at 0.365 mg/kg. On to `CN(C(=O)/C=C/C1CCCCC1)[C@H]1CC[C@@]2(O)[C@H]3Cc4ccc(O)c5c4[C@@]2(CCN3CC2CC2)[C@H]1O5` [Compound 50, 17-cyclopropylmethyl-4,5α-epoxy-3,14β-dihydroxy-6α-(N-methyl-trans-3-cyclohexylacrylamido)morphinan.cndot.hydrochloride], for which, in experiment [1], the ED50 was 0.011 mg/kg. In experiment [2], this molecule registered an ED (200% urine output) of 0.0021 mg/kg and an ED (500% urine output) of 0.0325 mg/kg.

As to `CN(C(=O)CSc1ccccc1)[C@@H]1CC[C@@]2(O)[C@H]3Cc4ccc(O)c5c4[C@@]2(CCN3CC2CC2)[C@H]1O5` [Compound 65, 17-cyclopropylmethyl-3,14β-dihydroxy-4,5α-epoxy-6β-(N-methylthiophenoxyacetamido)morphinan.cndot.tartrate], the ED50 in experiment [1] was found to be 0.15 mg/kg. In experiment [2], this molecule came in with an ED (200% urine output) of 0.119 mg/kg and an ED (500% urine output) of 5.31 mg/kg.

For `CN(C(=O)Cc1cccc([N+](=O)[O-])c1)[C@H]1CC[C@@]2(O)[C@H]3Cc4ccc(O)c5c4[C@@]2(CCN3CC2CC2)[C@H]1O5` [Compound 83, 17-Cyclopropylmethyl-3,14β-dihydroxy-4,5α-epoxy-6α-(N-methyl-3-nitrophenylacetamido)morphinan.cndot.hydrochloride], the ED50 in experiment [1] was 0.008 mg/kg. In experiment [2], this molecule gave an ED (200% urine output) of 0.0261 mg/kg and an ED (500% urine output) of 2.99 mg/kg. Take `CN(C(=O)/C=C/c1ccc(Cl)c(Cl)c1)[C@H]1CC[C@@]2(O)[C@H]3Cc4ccc(O)c5c4[C@@]2(CCN3CC2CC2)[C@H]1O5` [Compound 86, 17-cyclopropylmethyl-3,14β-dihydroxy-4,5α-epoxy-6α-(N-methyl-3,4-dichlorocinnamamido)morphinan.cndot.hydrochloride]: the ED50 in experiment [1] amounted to 0.0347 mg/kg. In experiment [2], this molecule had an ED (200% urine output) of 0.0057 mg/kg and an ED (500% urine output) of 0.229 mg/kg. On to `CCC/C=C/C(=O)N(C)[C@H]1CC[C@@]2(O)[C@H]3Cc4ccc(O)c5c4[C@@]2(CCN3CC2CC2)[C@H]1O5` [Compound 95, 17-cyclopropylmethyl-3,14β-dihydroxy-4,5α-epoxy-6α-(N-methyl-trans-2-hexenamido)morphinan.cndot.tartrate], for which the ED50 in experiment [1] was 0.0081 mg/kg. In experiment [2], this molecule had an ED (200% urine output) of 0.0028 mg/kg and an ED (500% urine output) of 0.0968 mg/kg. `CN(C(=O)/C=C/c1ccc(Cl)c(Cl)c1)[C@@H]1CC[C@@]2(O)[C@H]3Cc4ccc(O)c5c4[C@@]2(CCN3CC2CC2)[C@H]1O5` [Compound 179, 17-cyclopropylmethyl-3,14β-dihydroxy-4,5α-epoxy-6β-(N-methyl-3,4-dichlorocinnamamido)morphinan hydrochloride]: in experiment [1], the ED50 came out at 0.0028 mg/kg. As for `Cc1ccc(C#CC(=O)N(C)[C@H]2CC[C@@]3(O)[C@H]4Cc5ccc(O)c6c5[C@@]3(CCN4CC3CC3)[C@H]2O6)cc1.Cl` [Compound 183, 17-cyclopropylmethyl-3,14β-dihydroxy-4,5α-epoxy-6α-[N-methyl-3-(4-methylphenyl)propiolamido]morphinan hydrochloride], in experiment [1], the ED50 stood at 0.013 mg/kg. Same read-out and setting: the same measure for `CN(C(=O)C#Cc1ccco1)[C@H]1CC[C@@]2(O)[C@H]3Cc4ccc(O)c5c4[C@@]2(CCN3CC2CC2)[C@H]1O5.O=C(O)C(O)C(O)C(=O)O` [Compound 186, 17-cyclopropylmethyl-3,14β-dihydroxy-4,5α-epoxy-6α-[N-methyl-3-(2-furyl)propiolamido]morphinan tartrate]: 0.0061 mg/kg; for `COc1ccc(C#CC(=O)N(C)[C@H]2CC[C@@]3(O)[C@H]4Cc5ccc(O)c6c5[C@@]3(CCN4CC3CC3)[C@H]2O6)cc1.O=C(O)C(O)C(O)C(=O)O` [Compound 187, 17-cyclopropylmethyl-3,14β-dihydroxy-4,5α-epoxy-6α-[N-methyl-3-(4-methoxyphenyl)propiolamido]morphinan tartrate]: 0.026 mg/kg; for `CN(C(=O)C#Cc1ccoc1)[C@H]1CC[C@@]2(O)[C@H]3Cc4ccc(O)c5c4[C@@]2(CCN3CC2CC2)[C@H]1O5.O=C(O)C(O)C(O)C(=O)O` [Compound 188, 17-cyclopropylmethyl-3,14β-dihydroxy-4,5α-epoxy-6α-[N-methyl-(3-furyl)propiolamido]morphinan tartrate]: 0.002 mg/kg.

Turning to `CN(C(=O)COc1c(Cl)cc(Cl)cc1Cl)[C@@H]1CC[C@@]2(O)[C@H]3Cc4ccc(O)c5c4[C@@]2(CCN3CC2CC2)[C@H]1O5.Cl` [Compound 199, 17-cyclopropylmethyl-3,14β-dihydroxy-4,5α-epoxy-6β-(N-methyl-2,4,6-trichlorophenoxyacetamido)morphinan hydrochloride], the ED50 in experiment [1] was 0.017 mg/kg. In the case of `CN(C(=O)CCCCCc1ccccc1)[C@@H]1CC[C@@]2(O)[C@H]3Cc4ccc(O)c5c4[C@@]2(CCN3CC2CC2)[C@H]1O5` [Compound 202, 17-cyclopropylmethyl-3,14β-dihydroxy-4,5α-epoxy-6β-(N-methyl-6-phenylhexanoamido)morphinan hydrochloride], the ED50 in experiment [1] is 0.083 mg/kg. As to `CN(C(=O)CCCCc1ccccc1)[C@@H]1CC[C@@]2(O)[C@H]3Cc4ccc(O)c5c4[C@@]2(CCN3CC2CC2)[C@H]1O5` [Compound 203, 17-cyclopropylmethyl-3,14β-dihydroxy-4,5α-epoxy-6β-(N-methyl-5-phenylpentanoamido)morphinan hydrochloride], the ED50 in experiment [1] is 0.38 mg/kg. For the molecule `CN(C(=O)/C=C/c1ccoc1)[C@@H]1CC[C@@]2(O)[C@H]3Cc4cccc5c4[C@@]2(CCN3CC2CC2)[C@H]1O5` [Compound 204, 17-cyclopropylmethyl-4,5α-epoxy-14-hydroxy-6β-[N-methyl-trans-3-(3-furan)acrylamido]morphinan hydrochloride], the ED50 in experiment [1] turned out to be 0.013 mg/kg.

Consider `COc1ccc2c3c1O[C@H]1[C@H](N(C)C(=O)/C=C/c4ccoc4)CC[C@@]4(O)[C@@H](C2)N(CC2CC2)CC[C@]314` [Compound 217, 17-cyclopropylmethyl-4,5α-epoxy-14β-hydroxy-3-methoxy-6β-[N-methyl-trans-3-(3-furan)acrylamido]morphinan hydrochloride], for which, in experiment [1], the ED50 was 0.018 mg/kg.
